Values joined by “and” are separate entries in the source; they are usually repeats but may differ in a detail not shown here. Equal entries are not always repeated.

Here are results for one molecule from patent publication US10509041B2, “Glucose derivative, and cell imaging method and imaging agent using said derivative” (HIROSAKI UNIVERSITY, priority 2014, dated 2019).

The test system of experiment [1] is mouse insulinoma cells (MIN6). Description: Increase in fluorescence intensity (uptake) after administration of fluorescent glucose derivative to MIN6 cells, influence of cytochalasin B (CB) or phloretin (PHT), fluorescence microplate reader. Conditions: 2-NBDG 200 μM, 5 minutes; CB 10 μM; MIN6 13 days of culture; average, two independent experiments. Type of experiment: cell-based. The method, then: Increase in fluorescence intensity caused by the administration of CDG, and the influence of a glucose transporter (GLUT) inhibitor CB thereon were confirmed by targeting MIN6 cells.
A 96-well clear-bottom plate having wells of 8 rows (A to H) and 12 columns (1 to 12) (μClear-PLATE, Greiner Bio-One, BLACK) was used in measurement. A culture solution containing MIN6 cells suspended at a density of 60×10^4 cells/mL was added dropwise at 10 μL/well to the central portion of the well, and then, the plate was left standing for 40 minutes in an incubator for fixation. The cells were cultured by the addition of a culture solution at 200 μL/well (6000 cells/well). For layout, the cells were seeded to wells B to H on the third column and wells A to G on the fifth column. Medium replacement was performed by replacing half the amount with a fresh one once every two days at 0 to 4 DIV (days in vitro) and every day at 5 DIV or later. […]
CDG and 2-NBDG were each independently administered to the wells on the third and fifth columns using an 8-channel pipette such that these derivatives were alternately placed on the same plate. Before the administration, the autofluorescence of each well was measured in advance using a fluorescence microplate reader (Flex Station, Molecular Devices, LLC). […] The measurement was conducted at Bottom Read, Averaging 3, and Photomultiplier sensitivity high. […]

Experiment [2] relates to mouse insulinoma cells (MIN6). Described as above. Conditions: 2-NBDG 200 μM, 5 minutes; PHT 150 μM; MIN6 13 days of culture; average, two independent experiments. Type of experiment: cell-based.

For `O=[N+]([O-])c1ccc(N[C@H]2C(O)O[C@H](CO)[C@@H](O)[C@@H]2O)c2nonc12` (stereo partly drawn) [Compound 2-NBDG, 2-[N-(7-nitrobenz-2-oxa-1,3-diazol-4-yl)amino]-2-deoxy-D-glucose, reference compound], in experiment [1], the “fluorescence intensity in the presence of CB relative to the absence of CB” value is 30.8% and 36.4%. Further, in experiment [2], the “fluorescence intensity in the presence of PHT relative to the absence of PHT” value is 18.6% and 15.7%.
